For the assay, the system named is Mus musculus. The experiment in a line: Antipruritic activity in ddY mouse assessed as inhibition of compound 48/80-induced nose scratching behavior at 10 mg/kg, po for 20 mins preincubated 24 hrs before compound 48/80 challenge. Format: functional, organism-based. Also noted: dose 10 mg/kg.

Activity calls are given as the source filed them. No cut-off for these calls is given here.

Consider `COC1=CC(=O)c2ccccc2C1=O`, for which the outcome was Active.
The entry for `COc1c(O[C@@H]2O[C@H](CO)[C@@H](O)[C@H](O)[C@H]2O)c2ccccc2c2oc3c(c12)C(=O)c1ccccc1C3=O` is “Active”.

Source of the values: ChEMBL document CHEMBL1150946, “Antipruritic dinaphthofuran-7,12-dione derivatives from the pericarp of Impatiens balsamina” (J Nat Prod, 1998).
